Values of other authors, collected in patent US10955416B2, “Compositions for detecting mutant anaplastic lymphoma kinase in human lung cancer” (CELL SIGNALING TECHNOLOGY, INC., priority 2006, dated 2021).

Tested on: lymphoma cells
Settings: Marzec et al., Lab. Invest. 85(12): 1544-54 (2005); cited from earlier work

SMILES	apoptosis in lymphoma cells	proliferation in lymphoma cells
COc1cc2ncnc(Nc3ccc(O)cc3)c2cc1OC [WHI-131]	induce apoptosis	suppress proliferation
COc1cc2ncnc(Nc3ccc(O)c(Br)c3)c2cc1OC [WHI-154]	induce apoptosis	suppress proliferation
